Assay results: patent publication US20080125488A1, “Lactate Containing Pharmaceutical Composition and Uses Thereof” (priority 2003, published 2008)

Experiments:
[1] = system: isolated rat hearts; assay: In vitro model for ischemia (perfused isolated rat hearts); conditions: 5 mM lactate
Protocol: In order to determine the suitability of lactate for the treatment of conditions such as ischemia-reperfusion, isolated rat harts were perfused either with perfusion medium containing 5 mM lactate or with a perfusion medium (control) containing 0.2 mM of hexanoic acid and 5.5 mM glucose in accordance with the protocol described by Garnier A. et al., J Mol Cell Cardiol 1996, 28, 1671-1682.

[2] = system: patients suffering from brain injury (brain trauma) with increased intracranial pressure; assay: Treatment of increased intracranial pressure caused by brain trauma; type: in vivo, human
Protocol: For this purpose, the composition of the invention or the mannitol was administered (infused) to a group of each twelve patients and the ICP was measured every 15 minutes.
The results of this study, in which 12 patients were either treated with mannitol or the hypertonic lactate solution of the invention, are shown in FIGS. 1 to 4 as well as in Tables 2 to 5.

Row | SMILES | rate pressure product ([1]; 40 minutes perfusion after 40 minutes ischemia, compared to control (FIG. 9A)) | heart rate ([1]; 40 minutes perfusion after 40 minutes ischemia, compared to control (FIG. 9C)) | diastolic pressure ([1]; compared to control (FIG. 9B)) | CPP after treatment ([2]; after treatment) [mm Hg] | ICP after treatment ([2]; after treatment) [mm Hg] | CPP before treatment ([2]; before treatment) [mm Hg] | ICP before treatment ([2]; before treatment, mean ± sem) [mm Hg] | number of survival ([2]; brain trauma patients, survivors out of group) | number of successful treatment (only first treatment) ([2]; first treatment only) | patients that survived the brain trauma ([2]; groups of 12 patients (FIG. 2)) | number of successful treatment (all treatments) ([2]; out of all ICH episodes treated) | number of cross over ([2]; patients switched to the other treatment after failure) | decrease in the intracranial pressure ([2]; within the first 30 minutes after the treatment (FIG. 1)) | ICP as share of the initial untreated ICP ([2]; within the next 3.5 hours after the treatment (rebound, FIG. 1))
1 | CC(O)C(=O)O (centres unmarked) [lactate] | significantly higher and prolonged increase | significantly higher and prolonged increase | significantly decreased |  |  |  |  |  |  |  |  |  |  | 
2 | OC[C@@H](O)[C@@H](O)[C@H](O)[C@H](O)CO [mannitol] |  |  |  | 73.2 ± 2.4 | 25.7 ± 1.7 | 67.6 ± 2.2 | 31 ± 1.8 | 7 out of 11 | 5 out of 11 | 7 | 14 out of 25 | 4 out of 11 | about 20% | about 90%
